Results as given in US20040023884A1, “Biologically active peptides from functional domains of bactericidal/permeability-increasing protein and uses thereof” (priority 1993, published 2004).
Entries after “also recorded” stand apart in the source; their conditions may differ. Ends that are not written are not given here.

Assays:
[1] = In vitro heparin-mediated lengthening of APTT / clotting time of heparinized plasma; format: biochemical, human; conditions: for effect on the clotting time of heparinized blood (in words): FIG. 12g; for effect on heparin-mediated lengthening of APTT (in words): citrated human plasma, 25 μg/mL heparin, 0.0 to 56 μg/mL
Procedure: In vitro, the effect of BPI combination functional domain peptides was determined on heparin-mediated lengthening of activated partial […] (APTT). The APTT is lengthened by the presence of endogenous or exogenous inhibitors of thrombin formation, such as therapeutically administered heparin. Thus, agents which neutralize the anti-coagulant effects of heparin will reduce the APTT measured by the test. Citrated human plasma (200 μL) was incubated for 1 minute at 37° C. with either 15 μL of diluent (0.15 M NaCl, 0.1 M Tris-HCl, pH 7.4) or 15 μL of the diluent also containing 25 μg/mL heparin (187 units/mg). Various concentrations (from 0.0 to 56 μg/mL) of rBPI23, rBPI21Δcys, or BPI combination peptides BPI.29 (the DIII homodimer) and BPI.30 (heterodimer DII+DIII) in a volume of 15 μL were added, followed immediately by 100 μL of thrombin reagent (Catalog No. 845-4, Sigma Chemical Co., St. Louis. MO). Clotting time ([…]) was measured using a BBL Fibrometer (Becton Dickenson Microbiology Systems, Cockeysville, Md.). […] FIG. 12e illustrates the results obtained with BPI.30 on a non-log scale.

E. coli 0113 LPS = assay: Limulus Amoebocyte Lysate (LAL) inhibition assay; format: biochemical
Outline: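 BPI proteolytic fragments incubated with E. coli 0113 LPS (4 ng/mL final) for 3 h at 37 °C, then diluted in D-PBS to 200 pg/mL LPS for chromogenic LAL. Lysate 25 min, substrate 20–30 min at room temperature, acetic acid stop; OD405 expressed as percent LPS inhibition.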

Candida albicans = format: cell-based; conditions: broth assay, FIGS. 11p and 11q
Procedure: In additional experiments, broth antibacterial assays were conducted to further determine the bactericidal activity of certain of the BPI peptides. Specifically, either E. coli J5 (rough) or E. coli 0111:B4 (smooth) bacteria were selected from single colonies on agar plates and used to inoculate 5 mL of Mueller Hinton broth and incubated overnight at 37° C. with shaking. The overnight culture was diluted (˜1:50) into 5 mL fresh broth and incubated at 37° C. to log phase (˜3 hours). Bacteria were pelleted for 5 minutes at 3000 rpm (1500×g). Bacterial pellets were resuspended in 5 mL PBS and diluted to 2×10^6 cells/mL in the Mueller Hinton broth (wherein 1 OD570 unit equals 1.25×10^9 CFU/mL). The BPI functional domain peptides to be tested were diluted to 200 μg/mL in broth and serially diluted 2-fold in 96 well culture plates (100 μL volume). All items were at 2-fold final concentration and experiments were conducted in triplicate. Bacteria were added at 100 μL/well and the plates were incubated on a shaker at 37° C. for a 20 hour period. The plates were then read on an ELISA plate multiple reader at 590 nm. One of the triplicate wells from each peptide concentration was selected for colony forming unit (CFU) determination. A 30 μL aliquot was added to 270 μL of PBS and further ten-fold serial dilutions were performed. Then a 50 μL aliquot was plated on tryptic soy agar and incubated overnight. Colonies were counted and final bacterial concentrations determined. The results of these assays are depicted in FIGS. 9e (for E. coli J5) and 9f (for E. coli 0111:B4).
In light of the results of the experiments disclosed in Example 15, the bactericidal activity of domain II-domain III combination peptides were compared with the bactericidal activity of each of the component BPI domain II and domain III peptides, against a number of different bacteria and other microorganisms. The following BPI functional domain peptides as described above were used in radial diffusion bactericidal assays (Example 2) and broth bactericidal assays (Example 13) essentially as described in Example 15 above. These Figures show results of bactericidal assays using the following bacterial strains: […]

Klebsiella pneumoniae = assay: Radial diffusion bactericidal assay, Klebsiella pneumoniae; format: cell-based
[2] = tested on: LPS-induced TNF production in whole blood; assay: Inhibition of LPS-induced TNF production in whole blood; format: cell-based; conditions: LPS-induced TNF production in human whole blood, E. coli 0113 LPS, 4 h at 37° C.
Procedure: LPS neutralization by BPI functional domain peptides of the invention was assayed in whole blood as follows. Freshly drawn blood from healthy human donors was collected into vacutainer tubes (ACD, Rutherford, N.J.) Aliquots of blood (170 μL) were mixed with 10 μL Ca^++-, Mg^++-free PBS containing 2.5 ng/mL E. coli 0113 LPS, and with 20 μL of varying concentrations of the BPI peptides of the invention ranging in concentration from 0.5-50 μg/mL. These mixtures were then incubated for 4 h at 37° C., and then the reaction stopped by the addition of 55 μL ice-cold Ca^++-, Mg^++-free PBS, followed by centrifugation at 500×g for 7 min. Supernatants were then assayed for TNF levels using a commercial ELISA kit (Biokine™ ELISA Test, T-cell Sciences, Cambridge. MA).

[3] = FIG. 11c, up to about 2000 pmol

IKISGKWKAQKRFLK [BPI.2]
effect on the clotting time of heparinized blood (in words) [1]: less of a decrease in clotting times | LAL / LPS inhibition activity (in words) (E. coli 0113 LPS): no significant LPS inhibition activity | fungicidal activity (in words) (Candida albicans): much lower activity levels

KSKVGWLIQLFHKK-NH2 (C-terminus assumed) [BPI.13]
bactericidal activity (in words) (Klebsiella pneumoniae; [3]): showed bactericidal activity | bactericidal activity (in words) (Klebsiella pneumoniae; FIG. 10d): low levels of activity | fungicidal activity (in words) (Candida albicans): found to have fungicidal activity | IC50 TNF assay [2]: 42 µg/mL

KSKVGWLIQLFHKKKSKVGWLIQLFHKK-NH2 (C-terminus assumed) [BPI.29]
effect on the clotting time of heparinized blood (in words) [1]: greatest effect | effect on heparin-mediated lengthening of APTT (in words) [1]: inhibit the heparin-mediated lengthening of APTT | bactericidal activity (in words) (Klebsiella pneumoniae; FIG. 10d): moderate levels of activity | fungicidal activity (in words) (Candida albicans): much lower activity levels | IC50 TNF assay [2]: 5.0 µg/mL

KWKAAARFLKKWKAAARFLK [BPI.48]
fungicidal activity (in words) (Candida albicans): much lower activity levels

KWKAQKRFLKKSKVGWLIQLFHKK-NH2 (C-terminus assumed) [BPI.30]
effect on the clotting time of heparinized blood (in words) [1]: greatest effect | effect on heparin-mediated lengthening of APTT (in words) [1]: inhibit the heparin-mediated lengthening of APTT | bactericidal activity (in words) (Klebsiella pneumoniae; [3]): showed bactericidal activity | bactericidal activity (in words) (Klebsiella pneumoniae; FIG. 10d): highest amount of bactericidal activity | fungicidal activity (in words) (Candida albicans): much lower activity levels

KWKAQKRFLKKWKAQKRFLK-NH2 (C-terminus assumed) [BPI.7]
effect on the clotting time of heparinized blood (in words) [1]: greatest effect; also recorded: less of a decrease in clotting times | LAL / LPS inhibition activity (in words) (E. coli 0113 LPS): significant LPS inhibition properties | bactericidal activity (in words) (Klebsiella pneumoniae; FIG. 10d): low levels of activity | IC50 TNF assay [2]: Not Inhibitory

NVGLKFSISNANIKISGKWKAQKRFLK [BPI.3]
effect on the clotting time of heparinized blood (in words) [1]: smaller effect | LAL / LPS inhibition activity (in words) (E. coli 0113 LPS): moderate LPS inhibition activity
